Assay results from publication PMC12337661, “PIEZO1 mechanical insensitivity in generalized lymphatic dysplasia with the potential for pharmacological rescue” (iScience, 2025).
In brackets after ≈: the same amount, converted by molar mass.

Experiments:
[1] = molecular target: T1, E829V hPIEZO1 (Homo sapiens, UniProt Q92508, E829V); experiment: Intracellular Ca2+ measurement (fura-2), T-REx-293 cells transiently transfected; assay type: cell-based; conditions: 1 μM Y1, versus WT
T1 construct: expressed in transfected cells; host or cells: T-REx-293 (modified HEK293), transient
Description: (§1) HEK 293 cell line was transiently transfected at 90% confluence using Lipofectamine 2000 (Invitrogen) in OptiMEM (Gibco). Briefly: 500 ng endotoxin-free DNA per 100μL OptiMEM was prepared alongside 3μL Lipofectamine 2000 per 100μL OptiMEM (Gibco). Both were incubated for 5 min and then mixed, and then incubated at room temperature (21°C–24°C) for 20–30 min. Finally, the transfection mix was gently added dropwise to the cells and the cells were placed in a humidified incubator at 37°C supplied with 5% CO2 for 5 h. Medium was replaced afterward, and cells were used for experimentation 48 h after transfection.
(§2) For intracellular Ca^2+ assays, cells were plated at 80–90% confluence in 96-well plates 24 h prior to recordings (6–8 × 10^4 cells per well). […] Cells were washed with SBS and incubated at room temperature for 20 min prior to recordings. Equal volumes of 2x concentrated compounds were injected to test for acute channel activation. Pre-incubation with compounds occurred during the 20 min prior to recordings. To expose cell membranes to hypo-osmolality, an equal volume of hypotonic SBS (containing only 35 mM NaCl) was injected onto the cells. Measurements were made on a fluorescence plate reader (Flexstation III, Molecular Devices) at room temperature (21 ± 2°C). Fura-2 was excited at 340 nm and 380 nm and emitted light collected at 510 nm, with measurements shown as the change in fluorescence (F) ratio (ΔF340/380).
(§3) KC41 (Dooku1) was prepared as described.[28] All purchased chemicals and solvents were used without further purification unless otherwise stated. All compounds were at least 95% pure by 1H NMR. 1H Nuclear Magnetic Resonance spectra were recorded at 500 MHz using a Bruker DRX 500 instrument or at 400 MHz using a Bruker DPX 400. 1H spectra are referenced based on the residual proton in the solvent (e.g., the CHCl3, 0.01% in 99.99% CDCl3). Coupling constants (J) are reported to the nearest 0.1 Hz. 13C NMR spectra were recorded at 125 MHz on 500 MHz spectrometers or at 100 MHz on 400 MHz spectrometers. LC-MS was performed on a Bruker Daltronics running a gradient of increasing acetonitrile (5–95%) in H2O both containing 0.1% formic acid at 1 mL.min^−1, on a short path C18 reverse phase column, detecting compounds with both a diode array detector and a Bruker mass spectrum analyser. HRMS was performed on a Bruker Daltonics micrOTOF using positive electrospray ionisation (ES+). Automated column chromatograph was carried out using a Biotage Isolera Four, using either Sfär Silica D or KP-Silica cartridges. HPLC was performed on an Agilent 1290 Infinity Series equipped with a UV detector and Hyperprep C18 reverse phase column. Key to NMR abbreviations: s (singlet), br s (broad singlet) d (doublet), dd (doublet of doublets), ddd (doublet of doublets of doublets), t (triplet), dt (doublet of triples), q (quartet), m (multiplet), ap. t (apparent triplet). For experiments, Yoda1 and its analogues were prepared as 10 mM stock solutions in 100% dimethyl sulfoxide (DMSO) before serial dilution in DMSO and final dilution in aqueous solution. Cells were exposed to 0.1% DMSO for all concentrations of the compounds from 0 to 10 μM.

[2] = molecular target: T2, R2335Q hPIEZO1 (Homo sapiens, UniProt Q92508, R2335Q); experiment: as above; assay type: cell-based; conditions: 1 μM Y1, versus WT
T2 construct: expressed in transfected cells; host or cells: T-REx-293 (modified HEK293), transient
Description: as §1, §2, §3

[3] = molecular target: T3, WT hPIEZO1 (Homo sapiens, UniProt Q92508); experiment: as above; assay type: cell-based; conditions: 1 μM
T3 construct: expressed in transfected cells; host or cells: T-REx-293 (modified HEK293), transient
Description: as §1, §2, §3

[4] = molecular target: T4, G1978D hPIEZO1 (Homo sapiens, UniProt Q92508, G1978D); experiment: as above; assay type: cell-based; conditions: 1 μM Y1, versus WT
T4 construct: expressed in transfected cells; host or cells: T-REx-293 (modified HEK293), transient
Description: as §1, §2, §3

[5] = molecular target: T5, I2270T hPIEZO1 (Homo sapiens, UniProt Q92508, I2270T); experiment: as above; assay type: cell-based
T5 construct: expressed in transfected cells; host or cells: T-REx-293 (modified HEK293), transient
Description: as §1, §2, §3

[6] = test system: mice; conditions: cited from earlier work
[7] = Mouse plasma protein binding; assay type: in vitro ADME
Description: (§4) Aqueous solubility, mouse microsomal stability and mouse plasma protein binding assays were performed by Malvern Panalytical (UK) as previously described.[29]

[8] = Aqueous (kinetic) solubility; assay type: physicochemical; conditions: pH 7.4, aqueous buffer, kinetic from dmso stock; physiological pH in PBS
Description: as §4

[9] = Mouse microsomal stability; assay type: in vitro ADME; conditions: mouse microsomes
Description: as §4

T3 sequence (Q92508 whole entry): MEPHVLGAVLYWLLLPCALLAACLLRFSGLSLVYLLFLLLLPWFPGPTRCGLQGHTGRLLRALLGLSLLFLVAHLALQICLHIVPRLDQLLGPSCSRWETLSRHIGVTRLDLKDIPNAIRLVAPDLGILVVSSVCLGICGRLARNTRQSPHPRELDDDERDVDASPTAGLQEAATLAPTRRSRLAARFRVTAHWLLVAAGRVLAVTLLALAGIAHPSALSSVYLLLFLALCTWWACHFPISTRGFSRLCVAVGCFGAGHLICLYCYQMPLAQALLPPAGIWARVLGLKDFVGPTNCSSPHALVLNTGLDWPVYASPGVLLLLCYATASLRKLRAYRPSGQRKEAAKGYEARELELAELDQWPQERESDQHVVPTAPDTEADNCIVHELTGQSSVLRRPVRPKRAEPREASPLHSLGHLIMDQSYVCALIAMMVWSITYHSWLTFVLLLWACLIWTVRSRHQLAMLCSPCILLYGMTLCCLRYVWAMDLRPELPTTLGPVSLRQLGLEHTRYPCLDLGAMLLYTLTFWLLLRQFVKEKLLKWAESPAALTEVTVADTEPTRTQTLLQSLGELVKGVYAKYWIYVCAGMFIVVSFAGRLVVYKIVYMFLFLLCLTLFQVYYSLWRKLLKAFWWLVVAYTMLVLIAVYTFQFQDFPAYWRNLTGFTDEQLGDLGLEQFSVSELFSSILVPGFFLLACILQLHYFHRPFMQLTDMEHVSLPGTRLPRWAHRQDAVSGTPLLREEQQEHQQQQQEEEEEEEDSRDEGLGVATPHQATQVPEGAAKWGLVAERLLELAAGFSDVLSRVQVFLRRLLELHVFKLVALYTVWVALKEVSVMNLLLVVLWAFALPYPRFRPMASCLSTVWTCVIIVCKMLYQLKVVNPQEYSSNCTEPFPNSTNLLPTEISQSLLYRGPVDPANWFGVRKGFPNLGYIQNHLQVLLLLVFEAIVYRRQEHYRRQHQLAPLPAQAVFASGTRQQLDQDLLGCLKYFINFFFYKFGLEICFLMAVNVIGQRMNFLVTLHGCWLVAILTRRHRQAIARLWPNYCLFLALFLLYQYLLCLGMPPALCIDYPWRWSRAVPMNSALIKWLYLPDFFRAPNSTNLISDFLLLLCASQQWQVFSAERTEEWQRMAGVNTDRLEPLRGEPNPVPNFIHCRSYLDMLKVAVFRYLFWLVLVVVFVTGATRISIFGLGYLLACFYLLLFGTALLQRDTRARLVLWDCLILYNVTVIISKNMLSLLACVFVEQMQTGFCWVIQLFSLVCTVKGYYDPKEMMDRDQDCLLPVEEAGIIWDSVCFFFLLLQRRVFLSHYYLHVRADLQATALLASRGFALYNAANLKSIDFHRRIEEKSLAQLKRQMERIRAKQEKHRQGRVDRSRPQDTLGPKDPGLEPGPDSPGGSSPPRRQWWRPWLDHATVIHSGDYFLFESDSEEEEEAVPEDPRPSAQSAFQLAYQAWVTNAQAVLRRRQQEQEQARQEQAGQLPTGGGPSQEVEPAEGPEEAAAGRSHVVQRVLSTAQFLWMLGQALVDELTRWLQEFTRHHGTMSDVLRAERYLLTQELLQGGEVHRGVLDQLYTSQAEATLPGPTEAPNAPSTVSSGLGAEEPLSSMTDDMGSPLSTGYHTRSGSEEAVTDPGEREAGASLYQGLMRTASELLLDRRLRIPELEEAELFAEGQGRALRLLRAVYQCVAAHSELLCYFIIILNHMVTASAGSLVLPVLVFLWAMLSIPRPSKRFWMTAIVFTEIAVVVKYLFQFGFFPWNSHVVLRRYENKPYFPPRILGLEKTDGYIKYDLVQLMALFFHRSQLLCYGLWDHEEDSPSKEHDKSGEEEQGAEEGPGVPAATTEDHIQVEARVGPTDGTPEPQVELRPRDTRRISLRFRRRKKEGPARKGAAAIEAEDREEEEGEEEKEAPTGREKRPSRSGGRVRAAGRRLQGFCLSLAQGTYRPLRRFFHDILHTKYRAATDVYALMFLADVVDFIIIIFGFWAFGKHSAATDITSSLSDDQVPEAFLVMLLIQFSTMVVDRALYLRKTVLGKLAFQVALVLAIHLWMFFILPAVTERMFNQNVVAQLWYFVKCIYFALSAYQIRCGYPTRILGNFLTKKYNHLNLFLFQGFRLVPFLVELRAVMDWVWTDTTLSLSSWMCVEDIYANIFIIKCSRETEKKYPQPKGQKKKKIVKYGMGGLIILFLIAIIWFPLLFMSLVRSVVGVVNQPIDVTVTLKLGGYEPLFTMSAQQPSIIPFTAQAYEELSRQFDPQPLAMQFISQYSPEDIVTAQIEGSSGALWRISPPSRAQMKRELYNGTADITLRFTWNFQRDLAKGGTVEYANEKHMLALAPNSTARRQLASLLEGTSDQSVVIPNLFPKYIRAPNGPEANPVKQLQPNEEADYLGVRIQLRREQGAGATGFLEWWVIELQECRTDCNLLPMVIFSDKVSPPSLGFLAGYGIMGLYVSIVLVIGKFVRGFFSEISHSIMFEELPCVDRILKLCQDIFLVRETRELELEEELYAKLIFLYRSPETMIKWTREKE
T5 sequence (Q92508 whole entry I2270T): as the sequence (Q92508 whole entry) above, with I2270T counted along it
T4 sequence (Q92508 whole entry G1978D): as the sequence (Q92508 whole entry) above, with G1978D counted along it
T1 sequence (Q92508 whole entry E829V): as the sequence (Q92508 whole entry) above, with E829V counted along it
T2 sequence (Q92508 whole entry R2335Q): as the sequence (Q92508 whole entry) above, with R2335Q counted along it

Clc1cccc(Cl)c1CSc1nnc(-c2cnccn2)s1 [Yoda1]
Effect on hPIEZO1 channel function [1]: reduced 1 μM Y1 effect
Effect on hPIEZO1 channel function [2]: reduced 1 μM Y1 effect
fluorescence (ΔFratio) ([3]; time 0 s): -0.01302
fluorescence (ΔFratio) ([3]; time 5 s): -0.00371
fluorescence (ΔFratio) ([3]; time 10 s): 0.00261
fluorescence (ΔFratio) ([3]; time 15 s): 0.01821
fluorescence (ΔFratio) ([3]; time 20 s): -9.97E-05
fluorescence (ΔFratio) ([3]; time 25 s): -0.004
fluorescence (ΔFratio) ([3]; time 30 s): -0.05053
fluorescence (ΔFratio) ([3]; time 35 s): 0.02247
fluorescence (ΔFratio) ([3]; time 40 s): 0.1718
fluorescence (ΔFratio) ([3]; time 45 s): 0.1972
fluorescence (ΔFratio) ([3]; time 50 s): 0.2136
fluorescence (ΔFratio) ([3]; time 55 s): 0.2004
fluorescence (ΔFratio) ([3]; time 60 s): 0.1986
fluorescence (ΔFratio) ([3]; time 65 s): 0.1996
fluorescence (ΔFratio) ([3]; time 70 s): 0.1871
fluorescence (ΔFratio) ([3]; time 75 s): 0.1803
fluorescence (ΔFratio) ([3]; time 80 s): 0.1839
fluorescence (ΔFratio) ([3]; time 85 s): 0.1791
fluorescence (ΔFratio) ([3]; time 90 s): 0.1817
fluorescence (ΔFratio) ([3]; time 95 s): 0.1659
fluorescence (ΔFratio) ([3]; time 100 s): 0.1565
fluorescence (ΔFratio) ([3]; time 105 s): 0.1608
fluorescence (ΔFratio) ([3]; time 110 s): 0.1552
fluorescence (ΔFratio) ([3]; time 115 s): 0.1355
fluorescence (ΔFratio) ([3]; time 120 s): 0.1385
fluorescence (ΔFratio) ([3]; time 125 s): 0.172
Effect on hPIEZO1 channel function [4]: reduced 1 μM Y1 effect
Effect on hPIEZO1 channel function ([5]; 1 μM Y1, versus WT): loss of MA: LOF; reduced 1 μM Y1 effect
Ca2+ signal 30-60 s after application, normalized to WT, vector control subtracted, Mean ([5]; 1 μM, n = 4): 0.1013
fluorescence (ΔFratio) ([5]; 1 μM, time 0 s): 6.26E-04
fluorescence (ΔFratio) ([5]; 1 μM, time 5 s): -0.00991
fluorescence (ΔFratio) ([5]; 1 μM, time 10 s): -0.00857
fluorescence (ΔFratio) ([5]; 1 μM, time 15 s): 0.00155
fluorescence (ΔFratio) ([5]; 1 μM, time 20 s): 0.00344
fluorescence (ΔFratio) ([5]; 1 μM, time 25 s): 0.01286
fluorescence (ΔFratio) ([5]; 1 μM, time 30 s): -0.01023
fluorescence (ΔFratio) ([5]; 1 μM, time 35 s): -0.00138
fluorescence (ΔFratio) ([5]; 1 μM, time 40 s): 0.07241
fluorescence (ΔFratio) ([5]; 1 μM, time 45 s): 0.05056
fluorescence (ΔFratio) ([5]; 1 μM, time 50 s): 0.06632
fluorescence (ΔFratio) ([5]; 1 μM, time 55 s): 0.05818
fluorescence (ΔFratio) ([5]; 1 μM, time 60 s): 0.06863
fluorescence (ΔFratio) ([5]; 1 μM, time 65 s): 0.05602
fluorescence (ΔFratio) ([5]; 1 μM, time 70 s): 0.06799
fluorescence (ΔFratio) ([5]; 1 μM, time 75 s): 0.05186
fluorescence (ΔFratio) ([5]; 1 μM, time 80 s): 0.04949
fluorescence (ΔFratio) ([5]; 1 μM, time 85 s): 0.05597
fluorescence (ΔFratio) ([5]; 1 μM, time 90 s): 0.06467
fluorescence (ΔFratio) ([5]; 1 μM, time 95 s): 0.02814
fluorescence (ΔFratio) ([5]; 1 μM, time 100 s): 0.04731
fluorescence (ΔFratio) ([5]; 1 μM, time 105 s): 0.04051
fluorescence (ΔFratio) ([5]; 1 μM, time 110 s): 0.04381
fluorescence (ΔFratio) ([5]; 1 μM, time 115 s): 0.05647
fluorescence (ΔFratio) ([5]; 1 μM, time 120 s): 0.06513
fluorescence (ΔFratio) ([5]; 1 μM, time 125 s): 0.04171
lymphatic valve formation ([6]; WT mice): accelerated lymphatic valve formation
adverse effects of injection ([6]; mice injected): mostly not been adversely affected
effect on edemas ([6]; mice): reduce peripheral and central edemas
meningeal lymphatic network function ([6]; mice): restored meningeal lymphatic network function
postsurgical lymphedema ([6]; mice): suppressed postsurgical lymphedema
cerebrospinal fluid accumulation and ventricular enlargement ([6]; mouse models of Down syndrome): decreased pathological cerebrospinal fluid accumulation and ventricular enlargement

O=C(O)c1ccc(-c2cnc(SCc3c(Cl)cccc3Cl)s2)cc1 [Yoda2b, 4-(2-([(2,6-Dichlorophenyl)methyl]sulfanyl)-1,3-thiazol-5-yl)benzoic acid]
unbound to mouse plasma proteins [7]: 0.4%
solubility kinetic [8]: 6.1 µM (≈ 2.42 µg/mL)
half-life [9]: 7.2 min
